Experimental data from patent US8486975B2, “Non-nucleoside reverse transcriptase inhibitors” (Merck Canada Inc., priority 2010, dated 2013).

Assays:
HIV-1 RT enzyme (WT) = HIV-1 RT enzyme (WT) (Human immunodeficiency virus type 1 group M subtype B, UniProt P04585); test: ECL assay for inhibition of HIV reverse transcriptase; format: biochemical; conditions: 100 nM compound; wild-type RT
Experimental: An assay to determine the in vitro inhibition of HIV reverse transcriptase by compounds of the present invention was conducted as follows: HIV-1 RT enzyme (0.1 nM) was combined with inhibitor or DMSO (10%) in assay buffer (50 mM Tris-HCl, pH 7.8, 1 mM dithiothreitol, 6 mM MgCl2, 80 mM KCl, 0.025% CHAPS, 0.1 mM EGTA), and the mixture preincubated for 30 minutes at room temperature in microtiter plates (Corning Costar #3365). 50 μL reaction mixtures were initiated with a combination of primer-template substrate (5 nM final concentration) and dNTPs (0.6 μM dNTPs, 20 nM Ruthenium-dUTP). The heterodimeric nucleic acid substrate was generated by annealing the DNA primer biotinylated-pD500 (obtained from Integrated DNA Technologies) to t500, a 500 nucleotide RNA template created by in vitro transcription (see Shaw-Reid et al., J. Biol. Chem., 278: 2777-2780). After a 90 minute incubation at 37° C., reactions were quenched by 60 μL of quenching buffer containing 0.05 M EDTA, 0.7% BSA, 0.07% Tween-20 and 0.017% sodium azide in PBS. […] The plate is then left at room temperature for 1 hour, after which it is washed 3 times with 200 μL per well of PBS. 150 μL of 1× read buffer T (MSD) is added and the plate read on the Sector Imager 6000 (MSD).

wild-type HIV-1 = test: Spread assay: inhibition of acute HIV-1 infection of T-lymphoid cells (wild-type); format: cell-based
Experimental: Assays for the inhibition of acute HIV-1 infection of T-lymphoid cells (alternatively referred to herein as the “spread assay”) were conducted in accordance with Vacca, J. P. et al., Proc. Natl. Acad. Sci. USA 1994, 91: 4096. […] The compounds were also tested using a variant of the assay using HIV strains containing the K103N and Y181C mutants, and found to be less than 20-fold shifted relative to wild-type in all cases.

SMILES: Cn1c(Cn2ccc(Br)c(Oc3cc(Cl)cc(C#N)c3)c2=O)n[nH]c1=O [Example 4-1, 3-({4-Bromo-1-[(4-methyl-5-oxo-4,5-dihydro-1H-1,2,4-triazol-3-yl)methyl]-2-oxo-1,2-dihydropyridin-3-yl}oxy)-5-chlorobenzonitrile]
- inhibition at 0.1 µM (HIV-1 RT enzyme (WT)): 90%
- Spread (WT) CIC95 (nM) (50% NHS) (wild-type HIV-1): 12 nM

SMILES: Cn1c(Cn2ccc(Cl)c(Oc3cc(Cl)cc(C#N)c3)c2=O)n[nH]c1=O [Example 3-1, 3-Chloro-5-({4-chloro-1-[(4-methyl-5-oxo-4,5-dihydro-1H-1,2,4-triazol-3-yl)methyl]-2-oxo-1,2-dihydropyridin-3-yl}oxy)benzonitrile]
- inhibition at 0.1 µM (HIV-1 RT enzyme (WT)): 75%
- Spread (WT) CIC95 (nM) (50% NHS) (wild-type HIV-1): 15 nM

SMILES: Cn1c(Cn2cc(Br)c(Cl)c(Oc3cc(Cl)cc(C#N)c3)c2=O)n[nH]c1=O [Example 6-1, 3-({5-Bromo-4-chloro-1-[(4-methyl-5-oxo-4,5-dihydro-lH-l,2,4-triazol-3-yl)methyl]-2-oxo-1,2-dihydropyridin-3-yl}oxy)-5-chlorobenzonitrile]
- inhibition at 0.1 µM (HIV-1 RT enzyme (WT)): 90%
- Spread (WT) CIC95 (nM) (10% FBS) (wild-type HIV-1): 5.1 nM

SMILES: CCn1c(Cn2ccc(C(F)(F)F)c(Oc3cc(Cl)cc(C#N)c3)c2=O)n[nH]c1=O [Example 2-1, 3-Chloro-5-({1-[(4-ethyl-5-oxo-4,5-dihydro-1H-1,2,4-triazol-3-yl)methyl]-2-oxo-4-(trifluoromethyl)-1,2-dihydropyridin-3-yl}oxy)benzonitrile]
- inhibition at 0.1 µM (HIV-1 RT enzyme (WT)): 75%
- Spread (WT) CIC95 (nM) (50% NHS) (wild-type HIV-1): 26 nM

SMILES: Cn1c(Cn2ccc(C(C)(F)F)c(Oc3cc(Cl)cc(C#N)c3)c2=O)n[nH]c1=O [Example 5-1, 3-Chloro-5-({4-(1,1-difluoroethyl)-1-[(4-methyl-5-oxo-4,5-dihydro-1H-1,2,4-triazol-3-yl)methyl]-2-oxo-1,2-dihydropyridin-3-yl}oxy)benzonitrile]
- inhibition at 0.1 µM (HIV-1 RT enzyme (WT)): 75%
- Spread (WT) CIC95 (nM) (50% NHS) (wild-type HIV-1): 10 nM

SMILES: Cn1c(Cn2ccc(C(F)(F)F)c(Oc3cc(C#N)cc(C(F)F)c3)c2=O)n[nH]c1=O [Example 8-1, 3-(Difluoromethyl)-5-({1-[(4-methyl-5-oxo-4,5-dihydro-1H-1,2,4-triazol-3-yl)methyl]-2-oxo-4-(trifluoromethyl)-1,2-dihydropyridin-3-yl}oxy)benzonitrile]
- inhibition at 0.1 µM (HIV-1 RT enzyme (WT)): 75%
- Spread (WT) CIC95 (nM) (10% FBS) (wild-type HIV-1): 7.3 nM

SMILES: Cn1c(Cn2cc(Br)c(C(F)(F)F)c(Oc3cc(Cl)cc(C#N)c3)c2=O)n[nH]c1=O [Example 7-1, 3-({5-Bromo-1-[(4-methyl-5-oxo-4,5-dihydro-1H-1,2,4-triazol-3-yl)methyl]-2-oxo-4-(trifluoromethyl)-1,2-dihydropyridin-3-yl}oxy)-5-chlorobenzonitrile]
- inhibition at 0.1 µM (HIV-1 RT enzyme (WT)): 77%
- Spread (WT) CIC95 (nM) (50% NHS) (wild-type HIV-1): 23 nM

SMILES: Cn1c(Cn2ccc(C(F)(F)F)c(Oc3cc(Cl)cc(C#N)c3)c2=O)n[nH]c1=O [Example 1-1, 3-Chloro-5-({1-[(4-methyl-5-oxo-4,5-dihydro-1H-1,2,4-triazol-3-yl)methyl]-2-oxo-4-(trifluoromethyl)-1,2-dihydropyridin-3-yl}oxy)benzonitrile]
- inhibition at 0.1 µM (HIV-1 RT enzyme (WT)): 85%
- Spread (WT) CIC95 (nM) (50% NHS) (wild-type HIV-1): 19 nM
